According to the SangsterLogP compilation:

Compound | logP
C=CCN1CCCC1CNC(=O)c1cc(S(N)(=O)=O)cc(OC)c1OC (stereo not drawn) | 1.47
CCN(CC)CCCN(c1ccccc1)C1Cc2ccccc2C1 | 4.86
CC(C)NCCCC1(C(N)=O)c2ccccc2-c2ccccc21 | 3.11
CC(C)NCC(O)COc1cccc2c1N(C(=O)c1cccnc1)CCC2 (stereo not drawn) | 1.63
CNC(=O)Nc1c(OCCN2CCCC2)c(OC)c2occc2c1OC | 1.38
CN(C)CCCN1c2ccccc2Sc2ccccc21 | 4.64
O=C(NCC1CCCCN1)c1cc(OCC(F)(F)F)ccc1OCC(F)(F)F (stereo not drawn) | 3.78
CN1CCN(CCCN2c3ccccc3Sc3ccccc32)CC1 | 4
C=CCN1CCCC1CNC(=O)c1cc(S(=O)(=O)NC)c(N)cc1OC (stereo not drawn) | 1.69
COc1ccc2c(c1)-c1c(ccc(OC)c1O)CC(CCc1ccccc1)N(C)CC2 (stereo not drawn) | 4.85
CC(C)(C)c1cc(C(O)CCC2CCNCC2)c2ccccc2n1 (stereo not drawn) | 3.63
CN1CCCCC1CCN1c2ccccc2Sc2ccc(S(C)(=O)=O)cc21 (stereo not drawn) | 4.45
CCN(CC)CCNC(=O)c1ccc(N)cc1 | 0.82
